Like-named read-outs stand apart in the source and are kept apart here.
Legend:
Type in all cases: in vivo
[1] = test system: Alopecurus myosuroides (ALOMY); experiment: Glasshouse assay for herbicidal activity, pre-/post-emergence (percentage phytotoxicity); conditions: Alopecurus myosuroides, Rate 250 g/ha, 100%=total damage, 0%=no damage
Procedure, shortened: (§1)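 Visual score (0–100% damage) at 15DAA post-em / 20DAA pre-em. Pots, std soil; treated 1 d (pre) or ~12 d (post) after sowing. 24/18 °C warm spp., 20/16 °C cool spp., 16 h light, 65% RH.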

Avena fatua (AVEFA) = experiment: as above; conditions: Avena fatua, Rate 250 g/ha, 100%=total damage, 0%=no damage
Procedure, shortened: as §1

[2] = test system: Echinochloa crus-galli (ECHCG); experiment: as above; conditions: Echinochloa crus-galli, Rate 250 g/ha, 100%=total damage, 0%=no damage
Procedure, shortened: as §1

Lolium perenne (LOLPE) = experiment: as above; conditions: Lolium perenne, Rate 250 g/ha, 100%=total damage, 0%=no damage
Procedure, shortened: as §1

wheat = experiment: Post-emergence herbicidal activity against cereal crops (wheat) +/- safener, crop selectivity; conditions: 100%=total damage to plant, 0%=no damage; for Post-emergence herbicidal activity against wheat (percentage phytotoxicity), +CQC: 250 g/ha, plus safener cloquintocet-mexyl (CQC) applied at 50 g/ha; for percent phytotoxicity (crop damage) to wheat at 250 g/ha: Triticum aestivum, 360 h, without safener, read-out: Post-emergence herbicidal activity against wheat (percentage phytotoxicity), Wheat - CQC
Procedure, shortened: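 Test plants raised in pots in a glasshouse (24/18 °C warm or 20/16 °C cool species day/night, 16 h light, 65% humidity) and treated post-emergence about 12 days after sowing. Visual percentage phytotoxicity scored 15 days after application (0% = no damage, 100% = total damage).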

[3] = 360 h, post-emergence, visual assessment 15 DAA, read-out: Post-emergence herbicidal activity (percentage phytotoxicity), ALOMY POST
[4] = 480 h, pre-emergence, visual assessment 20 DAA, read-out: Pre-emergence herbicidal activity (percentage phytotoxicity), ALOMY PRE
[5] = post-emergence, 360 h, post-emergence, visual assessment 15 DAA, read-out: Post-emergence herbicidal activity (percentage phytotoxicity), AVEFA POST
[6] = pre-emergence, 480 h, pre-emergence, visual assessment 20 DAA, read-out: Pre-emergence herbicidal activity (percentage phytotoxicity), AVEFA PRE
[7] = post-emergence, 360 h, post-emergence, visual assessment 15 DAA, read-out: Post-emergence herbicidal activity (percentage phytotoxicity), ECHCG POST
[8] = pre-emergence, 480 h, pre-emergence, visual assessment 20 DAA, read-out: Pre-emergence herbicidal activity (percentage phytotoxicity), ECHCG PRE
[9] = post-emergence, 360 h, post-emergence, visual assessment 15 DAA, read-out: Post-emergence herbicidal activity (percentage phytotoxicity), LOLPE POST
[10] = pre-emergence, 480 h, pre-emergence, visual assessment 20 DAA, read-out: Pre-emergence herbicidal activity (percentage phytotoxicity), LOLPE PRE

Row | Compound | pest or weed control at 250 g/ha [1, 3] | pest or weed control at 250 g/ha [1, 4] | pest or weed control at 250 g/ha (Avena fatua (AVEFA); [5]) | pest or weed control at 250 g/ha (Avena fatua (AVEFA); [6]) | pest or weed control at 250 g/ha [2, 7] | pest or weed control at 250 g/ha [2, 8] | pest or weed control at 250 g/ha (Lolium perenne (LOLPE); [9]) | pest or weed control at 250 g/ha (Lolium perenne (LOLPE); [10]) | Post-emergence herbicidal activity against wheat (percentage phytotoxicity), +CQC (wheat) | percent phytotoxicity (crop damage) to wheat at 250 g/ha (wheat)
1 | CC(=NOCc1ccccc1)C(=O)NCCC1CC(=O)C(c2c(C)cc(C)cc2C)C1=O (centres unmarked) [Compound A44] | 0% | 0% | 0% | 0% | 70% | 0% | 0% | 10% | 10% | 30%
2 | Cc1cc(C)c(C2C(=O)CC(CCNC(=O)Nc3ccccc3F)C2=O)c(C)c1 (centres unmarked) [Compound A45] | 20% | 0% | 0% | 0% | 40% | 80% | 80% | 90% | 0% | 0%
3 | Cc1cc(C)c(C2C(=O)CC(CCNC(=O)NC(=O)c3ccccc3)C2=O)c(C)c1 (centres unmarked) [Compound A46] | 70% | 30% | 90% | 30% | 100% | 60% | 100% | 70% | 70% | 80%
4 | Cc1cc(C)c(C2C(=O)CC(CCNC(=O)N3CCOCC3)C2=O)c(C)c1 (centres unmarked) [Compound A47] | 60% | 60% | 70% | 0% | 60% | 80% | 30% | 50% | 0% | 50%
5 | Cc1cc(C)c(C2C(=O)CC(CCNC(=O)NC(=O)c3c(F)cccc3F)C2=O)c(C)c1 (centres unmarked) [Compound A48] | 90% | 100% | 100% | 90% | 100% | 90% | 100% | 100% | 50% | 60%
6 | Cc1cc(C)c(C2C(=O)CC(CCNC(=O)NC(=O)c3ccccc3Cl)C2=O)c(C)c1 (centres unmarked) [Compound A49] | 100% | 90% | 100% | 80% | 100% | 100% | 100% | 90% | 90% | 90%
7 | Cc1cc(C)c(C2C(=O)CC(CCNC(=O)NC(=O)c3ccccc3C)C2=O)c(C)c1 (centres unmarked) [Compound A50] | 100% | 100% | 90% | 80% | 80% | 90% | 100% | 90% | 90% | 90%
8 | Cc1cc(C)c(C2C(=O)CC(CCNC(=O)NC(=O)c3ccc(Cl)cc3)C2=O)c(C)c1 (centres unmarked) [Compound A51] | 90% | 70% | 80% | 30% | 90% | 90% | 90% | 60% | 80% | 80%
9 | Cc1cc(C)c(C2C(=O)CC(CCNC(=O)NC(=O)c3c(Cl)cccc3Cl)C2=O)c(C)c1 (centres unmarked) [Compound A52] | 90% | 80% | 80% | 70% | 90% | 100% | 90% | 80% | 30% | 80%
10 | Cc1cc(C)c(C2C(=O)CC(CCNC(=O)NC(=O)c3ccc(F)cc3F)C2=O)c(C)c1 (centres unmarked) [Compound A53] | 90% | 80% | 100% | 70% | 100% | 100% | 100% | 90% | 80% | 90%
11 | Cc1cc(C)c(C2C(=O)CC(CCNC(=O)NC(=O)c3ccccc3F)C2=O)c(C)c1 (centres unmarked) [Compound A54] | 100% | 60% | 100% | 60% | 100% | 80% | 100% | 80% | 80% | 90%
12 | Cc1ccc(C(=O)NC(=O)NCCC2CC(=O)C(c3c(C)cc(C)cc3C)C2=O)cc1 (centres unmarked) [Compound A55] | 70% | 60% | 0% | 10% | 80% | 80% | 90% | 70% | 0% | 30%
13 | Cc1cc(C)c(C2C(=O)CC(CCNC(=O)NC(=O)c3ccc(F)c(F)c3)C2=O)c(C)c1 (centres unmarked) [Compound A56] | 80% | 70% | 80% | 40% | 80% | 60% | 90% | 80% | 70% | 80%
14 | COc1ccc(C(=O)NC(=O)NCCC2CC(=O)C(c3c(C)cc(C)cc3C)C2=O)cc1 (centres unmarked) [Compound A57] | 90% | 80% | 50% | 0% | 80% | 100% | 100% | 70% | 20% | 80%
